Measured values reported in PubChem BioAssay (NCI).
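Exposure lasted 48 hours, with cells grown in 96-well plates and compounds tested at five concentrations. GI50 = concentration required for 50% inhibition of growth. The concentration for full growth arrest is given as TGI.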

Assays:
Assay in all cases: NCI anticancer screen, dose series, 48 h
HCC-2998 colon = test system: HCC-2998 colon
SF-268 CNS = test system: SF-268 CNS
UO-31 renal = test system: UO-31 renal
NCI-H522 lung = test system: NCI-H522 lung
HCT-15 colon = test system: HCT-15 colon
A549 NSCLC = test system: A549 NSCLC
SF-295 CNS = test system: SF-295 CNS
NCI-H460 lung = test system: NCI-H460 lung
RXF 393 renal = test system: RXF 393 renal
OVCAR-3 ovarian = test system: OVCAR-3 ovarian
LOX IMVI melanoma = test system: LOX IMVI melanoma
DU-145 prostate = test system: DU-145 prostate
HOP-92 NSCLC = test system: HOP-92 NSCLC
HCT-116 colon = test system: HCT-116 colon
CCRF-CEM leukemia = test system: CCRF-CEM leukemia
MDA-MB-231 breast = test system: MDA-MB-231 breast
PC-3 prostate = test system: PC-3 prostate
SK-MEL-28 melanoma = test system: SK-MEL-28 melanoma
MOLT-4 leukemia = test system: MOLT-4 leukemia
HL-60(TB) leukemia = test system: HL-60(TB) leukemia
M14 melanoma = test system: M14 melanoma
ACHN renal = test system: ACHN renal
HT29 colon = test system: HT29 colon
TK-10 renal = test system: TK-10 renal
MDA-MB-435 = test system: MDA-MB-435
BT-549 breast = test system: BT-549 breast
COLO 205 colon = test system: COLO 205 colon
786-0 renal = test system: 786-0 renal
SF-539 CNS = test system: SF-539 CNS
HOP-62 NSCLC = test system: HOP-62 NSCLC
MCF7 breast = test system: MCF7 breast
SW-620 colon = test system: SW-620 colon
OVCAR-8 ovarian = test system: OVCAR-8 ovarian
HS 578T breast = test system: HS 578T breast
U251 CNS = test system: U251 CNS
UACC-257 melanoma = test system: UACC-257 melanoma
RPMI-8226 leukemia = test system: RPMI-8226 leukemia
T-47D breast = test system: T-47D breast
NCI/ADR-RES ovarian = test system: NCI/ADR-RES ovarian
EKVX NSCLC = test system: EKVX NSCLC
OVCAR-4 ovarian = test system: OVCAR-4 ovarian
NCI-H23 lung = test system: NCI-H23 lung
SK-OV-3 ovarian = test system: SK-OV-3 ovarian
NCI-H226 lung = test system: NCI-H226 lung
SR leukemia = test system: SR leukemia
K-562 leukemia = test system: K-562 leukemia
A498 renal = test system: A498 renal
SK-MEL-2 melanoma = test system: SK-MEL-2 melanoma
MALME-3M melanoma = test system: MALME-3M melanoma
SNB-75 CNS = test system: SNB-75 CNS
SK-MEL-5 melanoma = test system: SK-MEL-5 melanoma
SN12C renal = test system: SN12C renal
UACC-62 melanoma = test system: UACC-62 melanoma
SNB-19 CNS = test system: SNB-19 CNS
CAKI-1 renal = test system: CAKI-1 renal
KM12 colon = test system: KM12 colon
IGROV1 ovarian = test system: IGROV1 ovarian

O=C1C=CC2(NN=C(c3ccccc3)N2c2ccccc2)c2cccc(O)c21 (centres undefined)
GI50 (HCC-2998 colon): 3.83 µM | TGI (HCC-2998 colon): 13 µM | GI50 (SF-268 CNS): 1.84 µM | TGI (SF-268 CNS): 14.3 µM | GI50 (UO-31 renal): 1.46 µM | TGI (UO-31 renal): 7.67 µM | GI50 (NCI-H522 lung): 1.21 µM | TGI (NCI-H522 lung): 3.4 µM | GI50 (HCT-15 colon): 0.472 µM | TGI (HCT-15 colon): 2.37 µM | GI50 (A549 NSCLC): 1.84 µM | TGI (A549 NSCLC): 5 µM | GI50 (SF-295 CNS): 1.34 µM | TGI (SF-295 CNS): 3.18 µM | GI50 (NCI-H460 lung): 2.56 µM | TGI (NCI-H460 lung): 10.2 µM | GI50 (RXF 393 renal): 7.36 µM | TGI (RXF 393 renal): 25 µM | GI50 (OVCAR-3 ovarian): 1.08 µM | TGI (OVCAR-3 ovarian): 3.7 µM | GI50 (LOX IMVI melanoma): 0.275 µM | TGI (LOX IMVI melanoma): 1.28 µM | GI50 (DU-145 prostate): 1.27 µM | TGI (DU-145 prostate): 2.56 µM | GI50 (HOP-92 NSCLC): 22.8 µM | TGI (HOP-92 NSCLC): 54.2 µM | GI50 (HCT-116 colon): 1.38 µM | TGI (HCT-116 colon): 5.26 µM | GI50 (CCRF-CEM leukemia): 4.83 µM | TGI (CCRF-CEM leukemia): > 100 µM | GI50 (MDA-MB-231 breast): 2.37 µM | TGI (MDA-MB-231 breast): 33.9 µM | GI50 (PC-3 prostate): 3.19 µM | TGI (PC-3 prostate): > 100 µM | GI50 (SK-MEL-28 melanoma): 1.99 µM | TGI (SK-MEL-28 melanoma): 4.38 µM | GI50 (MOLT-4 leukemia): 6.81 µM | TGI (MOLT-4 leukemia): > 100 µM | GI50 (HL-60(TB) leukemia): 2.77 µM | TGI (HL-60(TB) leukemia): 8.03 µM | GI50 (M14 melanoma): 1.3 µM | TGI (M14 melanoma): 2.6 µM | GI50 (ACHN renal): 3.11 µM | TGI (ACHN renal): 21.5 µM | GI50 (HT29 colon): 2.53 µM | TGI (HT29 colon): 6.21 µM | GI50 (TK-10 renal): 5.46 µM | TGI (TK-10 renal): 46 µM | GI50 (MDA-MB-435): 0.185 µM | TGI (MDA-MB-435): 0.336 µM | GI50 (BT-549 breast): 1.13 µM | TGI (BT-549 breast): 2.69 µM | GI50 (COLO 205 colon): 1.89 µM | TGI (COLO 205 colon): 3.83 µM | GI50 (786-0 renal): 6.13 µM | TGI (786-0 renal): 43 µM | GI50 (SF-539 CNS): 1.26 µM | TGI (SF-539 CNS): 2.79 µM | GI50 (HOP-62 NSCLC): 0.693 µM | TGI (HOP-62 NSCLC): 2.22 µM | GI50 (MCF7 breast): 1.5 µM | TGI (MCF7 breast): 3.83 µM | GI50 (SW-620 colon): 1.67 µM | TGI (SW-620 colon): 3.64 µM | GI50 (OVCAR-8 ovarian): 2.4 µM | TGI (OVCAR-8 ovarian): > 100 µM | GI50 (HS 578T breast): 2.86 µM | TGI (HS 578T breast): 7.63 µM | GI50 (U251 CNS): 0.587 µM | TGI (U251 CNS): 20.2 µM | GI50 (UACC-257 melanoma): 1.47 µM | TGI (UACC-257 melanoma): 2.93 µM | GI50 (RPMI-8226 leukemia): 3.52 µM | TGI (RPMI-8226 leukemia): > 100 µM | GI50 (T-47D breast): 4.88 µM | TGI (T-47D breast): 37.7 µM | GI50 (NCI/ADR-RES ovarian): 1.62 µM | TGI (NCI/ADR-RES ovarian): 30.9 µM | GI50 (EKVX NSCLC): 1.41 µM | TGI (EKVX NSCLC): 14.5 µM | GI50 (OVCAR-4 ovarian): 0.698 µM | TGI (OVCAR-4 ovarian): 3.21 µM | GI50 (NCI-H23 lung): 0.46 µM | TGI (NCI-H23 lung): 2.18 µM | GI50 (SK-OV-3 ovarian): 11.8 µM | TGI (SK-OV-3 ovarian): 98 µM | GI50 (NCI-H226 lung): 1.83 µM | TGI (NCI-H226 lung): 4.53 µM | GI50 (SR leukemia): 4.38 µM | TGI (SR leukemia): 76.9 µM | GI50 (K-562 leukemia): 1.6 µM | TGI (K-562 leukemia): 21 µM | GI50 (A498 renal): 5.52 µM | TGI (A498 renal): 19.6 µM | GI50 (SK-MEL-2 melanoma): 4.6 µM | TGI (SK-MEL-2 melanoma): 21.5 µM | GI50 (MALME-3M melanoma): 1.28 µM | TGI (MALME-3M melanoma): 2.58 µM | GI50 (SNB-75 CNS): 1.82 µM | TGI (SNB-75 CNS): 3.44 µM | GI50 (SK-MEL-5 melanoma): 0.272 µM | TGI (SK-MEL-5 melanoma): 0.706 µM | GI50 (SN12C renal): 1.47 µM | TGI (SN12C renal): 2.84 µM | GI50 (UACC-62 melanoma): 1.05 µM | TGI (UACC-62 melanoma): 2.26 µM | GI50 (SNB-19 CNS): 1.59 µM | TGI (SNB-19 CNS): 10.8 µM | GI50 (CAKI-1 renal): 5.71 µM | TGI (CAKI-1 renal): 50.3 µM | GI50 (KM12 colon): 2.65 µM | TGI (KM12 colon): 18 µM | GI50 (IGROV1 ovarian): 3.19 µM | TGI (IGROV1 ovarian): 17.1 µM
